Data: article PMC9430770 (Microbiology Spectrum, 2022)

Tested on: Candida albicans 103
Experiment: Checkerboard microdilution assay with fluconazole
Format: cell-based
From the text: Ta b l e S3. Interaction of fluconazole ( FLC) and BE probes against isolates of Candida albicans
Compounds Molecular structure Individual action Interaction MIC(μg/ mL ) FICI Mode of
MIC (μg /mL) FLC Compounds interaction

## O=c1cc(-c2ccccc2)oc2cc(O)c(O)c(O)c12 [BE, Baicalein]
MIC of FLC in combination with the compound
  Interaction MIC FLC: 1 µg/mL
MIC of the compound in combination with FLC
  Interaction MIC Compounds: 1 µg/mL
Combination with FLC
  FICI: 0.039
Combination with FLC, FLC-resistant C. albicans
  Mode of interaction: Synergism
Compound alone
  Individual action MIC: 32 µg/mL
